Results published in ChEMBL document CHEMBL5620362 (Eur J Med Chem, 2023).
Calls of active or inactive are those of the source. No cut-off for these calls is given here.

Experiments:
HPAF-II [1] = assay: Induction of apoptosis in human HPAF-II cells assessed as viable cells at 1 uM incubated for 48 hrs by Annexin V-FITC/PI staining based flow cytometry (reference value: 89.73 %); assay type: functional; settings: read-out: Activity
HPAF-II [2] = assay: Induction of apoptosis in human HPAF-II cells assessed as early apoptotic cells at 1 uM incubated for 48 hrs by Annexin V-FITC/PI staining based flow cytometry (reference value: 0.90 %); assay type: functional
HPAF-II [3] = assay: Induction of apoptosis in human HPAF-II cells assessed as late apoptotic cells at 1 uM incubated for 48 hrs by Annexin V-FITC/PI staining based flow cytometry (reference value: 1.28 %); assay type: functional
HPAF-II [4] = assay: Induction of apoptosis in human HPAF-II cells assessed as necrotic cells at 1 uM incubated for 48 hrs by Annexin V-FITC/PI staining based flow cytometry (reference value: 8.09 %); assay type: functional
NCI-H23 [5] = assay: Induction of apoptosis in human NCI-H23 cells assessed as viable cells at 10 uM incubated for 48 hrs by Annexin V-FITC/PI staining based flow cytometry (reference value: 92.16 %); assay type: functional; settings: read-out: Activity
NCI-H23 [6] = assay: Induction of apoptosis in human NCI-H23 cells assessed as early apoptotic cells at 10 uM incubated for 48 hrs by Annexin V-FITC/PI staining based flow cytometry (reference value: 4.17 %); assay type: functional
NCI-H23 [7] = assay: Induction of apoptosis in human NCI-H23 cells assessed as late apoptotic cells at 10 uM incubated for 48 hrs by Annexin V-FITC/PI staining based flow cytometry (reference value: 2.89 %); assay type: functional
NCI-H23 [8] = assay: Induction of apoptosis in human NCI-H23 cells assessed as necrotic cells at 10 uM incubated for 48 hrs by Annexin V-FITC/PI staining based flow cytometry (reference value: 0.78 %); assay type: functional
[9] = biological target: T1, Nuclear receptor ROR-gamma (Homo sapiens) (UniProt P51449); assay: Binding affinity to ROR-gamma LBD (265 to 507 residues)(unknown origin) assessed as increase in thermal stability by measuring change in melting temperature at 100 uM incubated for 2 hrs followed by heating at 20 to 90 degreeC by NanoDSF assay (reference value: 46.0 degreeC); settings: filed as antagonist
T1 sequence (whole entry): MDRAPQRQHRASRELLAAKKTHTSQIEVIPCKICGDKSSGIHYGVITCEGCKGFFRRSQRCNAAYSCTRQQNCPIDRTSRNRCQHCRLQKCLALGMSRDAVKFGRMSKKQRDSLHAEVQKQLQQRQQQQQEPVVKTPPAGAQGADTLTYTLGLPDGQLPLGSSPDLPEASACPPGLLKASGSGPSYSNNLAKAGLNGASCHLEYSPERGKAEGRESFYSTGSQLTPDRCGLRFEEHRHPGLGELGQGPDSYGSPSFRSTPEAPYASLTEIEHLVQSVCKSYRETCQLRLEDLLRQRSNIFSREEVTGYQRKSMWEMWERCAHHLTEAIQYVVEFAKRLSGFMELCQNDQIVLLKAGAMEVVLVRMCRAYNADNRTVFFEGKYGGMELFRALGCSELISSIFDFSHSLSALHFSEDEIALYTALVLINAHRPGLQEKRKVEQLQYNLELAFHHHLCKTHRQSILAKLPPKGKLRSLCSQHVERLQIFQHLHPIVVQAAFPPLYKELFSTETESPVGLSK

[10] = biological target: T1, Nuclear receptor ROR-gamma (Homo sapiens); assay: Binding affinity to ROR-gamma LBD (265 to 507 residues)(unknown origin) assessed as increase in thermal stability by measuring melting temperature at 100 uM incubated for 2 hrs followed by heating at 20 to 90 degreeC by NanoDSF assay (reference value: 46.0 degreeC); settings: filed as antagonist
[11] = biological target: T1, Nuclear receptor ROR-gamma (Homo sapiens); assay: Binding affinity to ROR-gamma LBD (unknown origin) assessed as protein stabilization by measuring reduction in hydrolysis rate incubated for 10 mins by SDS-PAGE analysis; settings: filed as antagonist, dose <= 100.0 µM
[12] = biological target: T2, Nuclear receptor ROR-gamma (Homo sapiens, UniProt P51449); assay: Antagonist activity at ROR-gamma LBD (unknown origin) using biotinylated SRC1-2 as substrate preincubated for 60 mins followed by substrate addition measured after 30 mins by HTRF assay
T2 sequence (P51449 whole entry): T1 sequence (whole entry)

[13] = biological target: T2, Nuclear receptor ROR-gamma; assay: Binding affinity to ROR-gamma LBD (unknown origin) assessed as dissociation constant by ITC analysis
[14] = biological target: T2, Nuclear receptor ROR-gamma; assay: Binding affinity to CM5 chip-immobilized recombinant ROR-gamma LBD (unknown origin) assessed as dissociation constant by SPR analysis
HPAF-II [15] = assay: Antitumor activity against human HPAF-II cells measured after 72 hrs; assay type: functional, cell-based
HPAF-II [16] = assay: Downregulation of retinol metabolism-related gene expression in human HPAF-II cells at 20 uM incubated for 24 hrs by KEGG analysis; assay type: functional, cell-based
HPAF-II [17] = assay: Downregulation of drug metabolism-related gene expression in human HPAF-II cells at 20 uM incubated for 24 hrs by KEGG analysis; assay type: functional, cell-based
HPAF-II [18] = assay: Downregulation of chemical carcinogenesis-related gene expression in human HPAF-II cells at 20 uM incubated for 24 hrs by KEGG analysis; assay type: functional, cell-based
HPAF-II [19] = assay: Downregulation of cancer-related gene expression in human HPAF-II cells at 20 uM incubated for 24 hrs by KEGG analysis; assay type: functional, cell-based
HPAF-II [20] = assay: Downregulation of retinol metabolism-related gene expression in human HPAF-II cells at 20 uM incubated for 24 hrs by GO analysis; assay type: functional, cell-based
HPAF-II [21] = assay: Downregulation of lipid metabolism-related gene expression in human HPAF-II cells at 20 uM incubated for 24 hrs by GO analysis; assay type: functional, cell-based
HPAF-II [22] = assay: Downregulation of cancer-related gene expression in human HPAF-II cells at 20 uM incubated for 24 hrs by GO analysis; assay type: functional, cell-based
HPAF-II [23] = assay: Inhibition of MAPK signalling pathway in human HPAF-II cells at 20 uM incubated for 24 hrs by KEGG analysis; assay type: functional, cell-based
HPAF-II [24] = assay: Inhibition of RAS signalling pathway in human HPAF-II cells at 20 uM incubated for 24 hrs by KEGG analysis; assay type: functional, cell-based
HPAF-II [25] = assay: Effect on mTORC1 signalling pathway in human HPAF-II cells at 20 uM incubated for 24 hrs by KEGG analysis; assay type: functional, cell-based
HPAF-II [26] = assay: Downregulation of phosphorylated MEK expression in human HPAF-II cells at 20 uM incubated for 48 hrs by Western blot analysis; assay type: functional, cell-based
HPAF-II [27] = assay: Downregulation of phosphorylated ERK expression in human HPAF-II cells at 20 uM incubated for 48 hrs by Western blot analysis; assay type: functional, cell-based
HPAF-II [28] = assay: Downregulation of phosphorylated AKT expression in human HPAF-II cells at 20 uM incubated for 48 hrs by Western blot analysis; assay type: functional, cell-based

## O=S(=O)(c1ccccc1)N(CC(F)(F)F)c1ccc(C(O)(C(F)(F)F)C(F)(F)F)cc1 [T091317]
HPAF-II [1]
  viability at 1 µM: 79.8%
HPAF-II [2]
  Activity: 8.56%
HPAF-II [3]
  Activity: 7.38%
HPAF-II [4]
  Activity: 6.3%
NCI-H23 [5]
  viability at 10 µM: 90.2%
NCI-H23 [6]
  Activity: 2.68%
NCI-H23 [7]
  Activity: 3.82%
NCI-H23 [8]
  Activity: 3.3%

## C=C(C)[C@@H]1CC[C@]2(C(=O)O)CC[C@]3(C)[C@H](CC[C@@H]4[C@@]5(C)CC[C@H](O)C(C)(C)[C@@H]5CC[C@]43C)[C@@H]12 [BETULINIC ACID]
[9]
  ΔTm: 14.1 °C
[10]
  Tm: 60.2 °C
[11]
  Activity: Dose-Dependent Effect
[12]
  IC50: 2.2 µM
[13]
  Kd: 3.39 µM
[14]
  Kd: 2.7 µM
HPAF-II [15]
  IC50: 12.5 µM
HPAF-II [16]
  Activity: Active
HPAF-II [17]
  Activity: Active
HPAF-II [18]
  Activity: Active
HPAF-II [19]
  Activity: Active
HPAF-II [20]
  Activity: Active
HPAF-II [21]
  Activity: Active
HPAF-II [22]
  Activity: Active
HPAF-II [23]
  inhibition: Active
HPAF-II [24]
  inhibition: Active
HPAF-II [25]
  Activity: Active
HPAF-II [26]
  Activity: Active
HPAF-II [27]
  Activity: Active
HPAF-II [28]
  Activity: Active
